Data published in patent US12172975B2, “1H-indazole carboxamides as receptor-interacting protein kinase 1 inhibitors (RIPK1)” (BRISTOL-MYERS SQUIBB COMPANY, priority 2018, dated 2024).

Tested on: MLKL phosphorylation in HT29-L23 human colorectal adenocarcinoma cells
Assay: MLKL Phosphorylation High-Content Assay
Format: cell-based
Settings: Homo sapiens, 6 h, necroptosis induced with TNFα, SMAC mimetic and Z-VAD, read-out: pMLKL (IC50)
Protocol: MLKL Phosphorylation High-Content Assay
HT29-L23 human colorectal adenocarcinoma cells were maintained in RPMI 1640 medium containing 10% heat-inactivated FBS, 1% Penicillin-Streptomycin and 10 mM HEPES. Cells were seeded at 2,000 cells/well in 384 well tissue culture-treated microplates (Greiner #781090-3B) and incubated at 37° C. (5% CO2/95% O2) for 2 d. […] (5% CO2/95% O2). Necroptopsis was induced using a mixture of human TNFα (35 ng/mL) (Peprotech #300-01A), SMAC mimetic (from US 2015/0322111 A1) (700 nM) and Z-VAD ([…]) (BD pharmingen #51-6936). Following 6 h incubation at 37° C. (5% CO2/95% O2), the cells were fixed with 4% formaldehyde (ACROS 11969-0010) for 15 min at rt, then permeabilized with phosphate buffered saline (PBS) containing 0.2% Triton-X-100 for 10 min. MLKL phosphorylation was detected using anti-MLKL (phospho S358) antibody (Abeam #ab 187091) (1:1000 dilution in Blocking Buffer [PBS supplemented with 0.1% BSA]) with ON incubation at 4° C. After washing three times in PBS, goat anti-rabbit Alexa-488 (1:1000 dilution) (Life Technologies, A11008) and Hoechst 33342 (Life Technologies, H3570) (1:2000 dilution) in Blocking Buffer were added for 1 h at rt.
Following another three cycles of washes in PBS, the microplates were sealed, and cellular images were acquired in the Cellomics ArrayScan VTI high-content imager equipped with an X1 camera. Fluorescent images were taken using a 10× objective and the 386-23 BGRFRN_BGRFRN and 485-20 BGRFRN_BGRFRN filter sets, for nuclei and MLKL phosphorylation, respectively. The image sets were analyzed using the Compartmental Analysis Bioapplication software (Cellomics). The level of MLKL phosphorylation was quantified as MEAN_CircRingAvglntenRatio. The maximal inhibitory response was defined by the activity induced by Neels (CAS #: 852391-15-2, 6.25 μM). […] The data were fitted using the 4-parameter logistic equation to calculate the IC50 and Ymax values.

Structure (SMILES)	IC50 [nM]
CNC(=O)c1n[nH]c2cc(-c3cnc(OC)c(C(=O)NCc4ccccc4N4CCC(CO)CC4)c3)ccc12 [Example 57, 6-{5-[({2-[4-(hydroxymethyl)-piperidin-1-yl]phenyl}methyl)-carbamoyl]-6-methoxypyridin-3-yl}-N-methyl-1H-indazole-3-carboxamide]	110
CNC(=O)c1n[nH]c2cc(-c3cnc(OC)c(C(=O)NCc4ccccc4OC)c3)ccc12 [Example 58, 6-(6-methoxy-5-{[(2-methoxy-phenyl)methyl]carbamoyl}-pyridin-3-yl)-N-methyl-1H-indazole-3-carboxamide]	5.6
CNC(=O)c1n[nH]c2cc(-c3cnc(OC)c(C(=O)NCCCOC(C)(C)C)c3)ccc12 [Example 60, 6-(5-{[3-(tert-butoxy)propyl]-carbamoyl}-6-methoxypyridin-3-yl)-N-methyl-1H-indazole-3-carboxamide]	16
CNC(=O)c1n[nH]c2cc(-c3cnc(OC)c(C(=O)NCCCOC4CCCCO4)c3)ccc12 (stereo not shown) [Example 61, 6-(6-methoxy-5-{[3-(oxan-2-yloxy)propyl]carbamoyl}-pyridin-3-yl)-N-methyl-1H-indazole-3-carboxamide]	28
CNC(=O)c1n[nH]c2cc(-c3cnc(OC)c(C(=O)N[C@H]4CC[C@@H](c5ccccc5)C4)c3)ccc12 [Example 67, 6-(6-methoxy-5-{[(1S,3R)-3-phenylcyclopentyl]carbamoyl}-pyridin-3-yl)-N-methyl-1H-indazole-3-carboxamide]	39
CNC(=O)c1[nH]nc2cc(-c3cnc(OC)c(C(=O)NC[C@@H]4C[C@H]4c4ccc(F)cc4)c3)ccc12 [Example 70, 6-[5-({[(1R,2R)-2-(4-fluoro-phenyl)cyclopropyl]methyl}-carbamoyl)-6-methoxypyridin-3-yl]-N-methyl-2H-indazole-3-carboxamide]	36
CCc1ccccc1CNC(=O)c1cc(-c2ccc3c(C(=O)NC)n[nH]c3c2)cnc1OC [Example 82, 6-(5-{[(2-ethylphenyl)methyl]-carbamoyl}-6-methoxy-pyridin-3-yl)-N-methyl-1H-indazole-3-carboxamide]	41
CNC(=O)c1n[nH]c2cc(-c3cnc(OC)c(C(=O)NCCCC(=O)OC(C)(C)C)c3)ccc12 [Example 135, tert-butyl 4-({2-methoxy-5-[3-(methylcarbamoyl)-1H-indazol-6-yl]pyridin-3-yl}formamido)-butanoate]	200
CNC(=O)c1n[nH]c2cc(-c3cnc(OC)c(C(=O)N[C@H]4CCN(C(=O)OC(C)(C)C)C4)c3)ccc12 [Example 136, tert-butyl (3S)-3-{2-methoxy-5-[3-(methylcarbamoyl)-1H-indazol-6-yl]pyridine-3-amido}-pyrrolidine-1-carboxylate]	480
CNC(=O)c1n[nH]c2cc(-c3cnc(OC)c(C(=O)N[C@@H](C)CC(=O)OC(C)(C)C)c3)ccc12 [Example 139, tert-butyl (3S)-3-({2-methoxy-5-[3-(methylcarbamoyl)-1H-indazol-6-yl]pyridin-3-yl}-formamido)butanoate]	28

Same assay, conditions: necroptosis induced with TNFα, SMAC mimetic and Z-VAD, 6 h, read-out: pMLKL (IC50)

Structure (SMILES)	IC50 [nM]
CNC(=O)c1n[nH]c2cc(-c3cnc(OC)c(C(=O)NCC4CC4c4cccc(F)c4)c3)ccc12 (stereo not shown) [Example 48, 6-[5-({[2-(3-fluorophenyl)-cyclopropyl]methyl}carbamoyl)-6-methoxypyridin-3-yl]-N-methyl-1H-indazole-3-carbox-amide]	176
CNC(=O)c1n[nH]c2cc(-c3cnc(OC)c(C(=O)NCC4CC4c4cccc(F)c4)c3)ccc12 (stereo not shown) [Example 49, 6-[5-({[2-(3-fluorophenyl)-cyclopropyl]methyl}carbamoyl)-6-methoxypyridin-3-yl]-N-methyl-1H-indazole-3-carbox-amide]	21
CNC(=O)c1n[nH]c2cc(-c3cnc(OC)c(C(=O)NCc4cc(F)cc(F)c4OC)c3)ccc12 [Example 89, 6-(5-{[(3,5-difluoro-2-methoxy-phenyl)methyl]carbamoyl}-6-methoxy-pyridin-3-yl)-N-methyl-1H-indazole-3-carbox-amide]	85
